Source: EP0533084A1, “Pharmaceutical compositions comprising natriuretic peptides or neutral endopeptidase inhibitors for treating and preventing myointimal proliferation” (SCHERING CORPORATION, priority 1991, dated 1993)

System: carotid artery intimal proliferation
Assay: balloon catheter injury of the left carotid artery in spontaneously hypertensive rats; morphometric and DNA analyses of intimal proliferation 14 days post-injury
Assay type: in vivo, male spontaneously hypertensive rats
Details: SHR, means ± SEM
Procedure: Briefly, rats were anesthetized with Metofane (methoxyflurane) and a 2 Fr Fogarty embolectomy catheter was inserted into the left external carotid artery. The catheter was advanced 5 cm, inflated and retracted 3 times, turning the catheter 90^o each time. […] Animals were autopsied following exsanguination with ketamine (40 mg/kg) plus xylazine (10 mg/kg) i.m. anesthesia at specified timepoints following balloon injury.
Standard samples of the control right and balloon injured left carotid arteries were taken for DNA and morphometric analyses. […] The DNA results were expressed as the ratio of the left or ballooned carotid to the right control carotid. Three samples were taken for histology at 2.5 mm intervals cephalad from the DNA sample from each carotid artery and fixed in 4% paraformaldehyde containing 10% sucrose (wt/vol). Paraffin-embedded sections were stained with the Gomori trichrome-aldehyde fuchsin stain and computer-assisted morphometric analyses were performed using a Bioquant System IV image analyzer (R&M Biometrics Inc.). Morphometric measurements included: maximal intimal thickness (mm), intimal cross sectional area (mm²), and intimal cross sectional area/medial cross sectional area. […]

[1] = Exp. 5A, 10 mpk once a day, control see Exp. 1A

With `CC1(C)OCC(COC(=O)[C@H](Cc2ccccc2)N[C@@H](Cc2ccccc2)C(=O)NCCC(=O)O)O1` (stereo partly drawn) [compound A, N-[N-[(L)-[1-[(2,2-dimethyl-1,3-dioxolan-4-yl)methoxy]carbonyl]-2-phenylethyl]-L-phenylalanyl]-ß-alanine] as the compound, how does the “Carotid DNA (ballooned/ control)” value (Exp. 1, 90 mpk b.i.d.) read?
The value was 3.16 ±0.35.

And the “Intimal Area” value (Exp. 1, 90 mpk b.i.d.)?
The value was 0.99 ±0.010 mm^2.

What about the “Intimal Area/ Medial Area” value (Exp. 1, 90 mpk b.i.d.) of the same compound?
The value was 0.653 ±0.067.

What about the “Maximal Intimal Thickness” value (Exp. 1, 90 mpk b.i.d.) of the same compound?
Its value is 0.104 ±0.011 mm.

What about the “Carotid DNA (ballooned/ control)” value (Exp. 1A, 90 mpk b.i.d.) of the same compound?
Its value is 4.60 ±0.67.

What about the “Intimal Area” value (Exp. 1A, 90 mpk b.i.d.) of the same compound?
Its value is 0.099 ±0.010 mm^2.

What about the “Intimal Area/ Medial Area” value (Exp. 1A, 90 mpk b.i.d.) of the same compound?
Its value is 0.692 ±0.066.

And the “Maximal Intimal Thickness” value (Exp. 1A, 90 mpk b.i.d.)?
Its value is 0.110 ±0.010 mm.

`CCOC(=O)[C@H](CCSC)NC(=O)C(CSC(C)=O)Cc1ccccc1C` (stereo partly drawn) [compound B, N-[2-acetylthiomethyl-3-(2-methylphenyl)-propionyl]-methionine ethyl ester] was tested. Which “Carotid DNA (ballooned/ control)” value (Exp. 2, 30 mpk b.i.d.) did it give?
Its value is 3.47 ±0.40.

What about the “Intimal Area” value (Exp. 2, 30 mpk b.i.d.) of the same compound?
Its value is 0.071 ±0.010 mm^2.

What about the “Intimal Area/ Medial Area” value (Exp. 2, 30 mpk b.i.d.) of the same compound?
The value was 0.441 ±0.052.

What about the “Maximal Intimal Thickness” value (Exp. 2, 30 mpk b.i.d.) of the same compound?
The value was 0.085 ±0.009 mm.

What about the “Carotid DNA (ballooned/ control)” value (Exp. 2A, 10 mpk b.i.d.) of the same compound?
Its value is 3.12 ±0.22.

What about the “Intimal Area” value (Exp. 2A, 10 mpk b.i.d.) of the same compound?
The value was 0.106 ±0.010 mm^2.

And the “Intimal Area/ Medial Area” value (Exp. 2A, 10 mpk b.i.d.)?
Its value is 0.719 ±0.062.

And the “Maximal Intimal Thickness” value (Exp. 2A, 10 mpk b.i.d.)?
The value was 0.112 ±0.012 mm.

And the “Carotid DNA (ballooned/ control)” value (Exp. 4, 10 mpk b.i.d.)?
The value was 4.38 ±0.73.

What about the “Intimal Area” value (Exp. 4, 10 mpk b.i.d.) of the same compound?
Its value is 0.085 ±0.009 mm^2.

And the “Intimal Area/ Medial Area” value (Exp. 4, 10 mpk b.i.d.)?
Its value is 0.592 ±0.067.

What about the “Maximal Intimal Thickness” value (Exp. 4, 10 mpk b.i.d.) of the same compound?
The value was 0.095 ±0.012 mm.

With `CCOC(=O)[C@H](CCc1ccccc1)N[C@@H](C)C(=O)N1CC2(C[C@H]1C(=O)O)SCCS2` [compound D, spirapril, reference compound] as the compound, how does the “Carotid DNA (ballooned/ control)” value [1] read?
The value was 1.94 ±0.32.

What about the “Intimal Area” value [1] of the same compound?
Its value is 0.064 ±0.005 mm^2.

And the “Intimal Area/ Medial Area” value [1]?
The value was 0.500 ±0.049.

And the “Maximal Intimal Thickness” value [1]?
Its value is 0.082 ±0.010 mm.
